Values joined by “and” are separate entries in the source; they are usually repeats but may differ in a detail not shown here. Identical values can stand only once. “Also recorded” adds a separate entry of the source. Counter-ions that a name gives are not always drawn.
Legend:
[1] = tested on: human PASMCs; conditions: in vitro; cited from earlier work
[2] = Thermal behaviour (DSC/TGA), thermal stability; type: physicochemical; conditions: for Thermal stability (mp/dec): DSC/TGA 5 K/min
Experimental: As used herein, unless stated otherwise, the DSC measurements are carried out using a Mettler-Toledo DSC 821 with a heating rate of 5 K/min, using nitrogen purge gas at 50 mL/min.
As used herein, unless stated otherwise, the TGA measurements are carried out using a Mettler-Toledo TGA 851 with a heating rate of 5 K/min, using nitrogen purge gas at 50 mL/min.

[3] = Water Vapour Sorption isotherm (DVS), hygroscopicity acc. to Ph. Eur.; type: physicochemical; conditions: for Water uptake levels (Water Vapour Sorption): 25° C.; for Tendency to undergo hydrate formation: upon exposure to elevated RH levels
Experimental: As used herein, unless stated otherwise, Water Vapour Sorption isotherm measurements are carried out on a DVS-1 or a DVS-Intrinsic system from SMS.
A second endothermic event occurs at >180° C., which is due to melting of the dehydrated form. This is followed by immediate re-crystallisation (exothermic event), and subsequent melting of the re-crystallized phase at >240° C. […] DSC scan of form HCl-H1 was acquired on a Mettler-Toledo DSC 821 with a heating rate of 5 K/min, using nitrogen purge gas at 50 mL/min. […] Form HCl-H1 can be classified as non-hygroscopic acc. to Ph. Eur. criteria (section 5.11.). […] Water Vapour Sorption isotherm was acquired on a DVS-1 system from SMS. • Dissolution level of form HCl-H1 in Fed-State Simulated Intestinal Fluid [FeSSIF, pH 5.0] at 37° C. was determined to be approx. 1.50 mg/mL (after 15 min), approx. 4.16 mg/mL (after 60 min), and approx. 4.54 mg/mL (after 120 min), respectively (see example 17).

[4] = Mini-dissolution in FeSSIF medium (pH 5.0), dissolved quantity by HPLC; type: physicochemical; conditions: for Dissolution levels in FeSSIF pH 5.0: FeSSIF pH 5.0, 37° C.; for Dissolution behavior compared to prior-art form HCl-H1: biorelevant media, Fed-state conditions (FeSSIF, pH 5.0)
Experimental: Approximately 10-12 mg of N-(4,5-bis-methanesulfonyl-2-methyl-benzoyl)guanidine form HCl-H1 (HCl salt hydrate form, prior-art), HCl salt anhydrous forms (forms HCl-A1, HCl-A2, HCl-A3), and novel salt forms [phosphate salt (form Phosphate-NF1), maleate salt (form Maleate-NF2), oxalate salt (form Oxalate-NF1), citrate salt (form citrate-NF1), sulfate salt (form Sulfate-NF3), succinate salt (form Succinate-NF1), malonate salt (form Malonate-NF1), besylate salt (form Besylate-NF1), p-tosylate salt (form Tosylate-NF1), malate salt (form Malate-NF1), fumarate salt (form Fumarate-NF1), tartrate salt (form Tartrate-NF1)] are weighed into 4 mL glass vials, and dispersed in 4 mL FeSSIF medium (pH 5.0, Acetate buffer capacity increased by factor 4 to ensure stable pH conditions over course of dissolution experiments).
All dispersions are agitated at 37° C. for up to 2 hours. At defined time intervals (5 min, 15 min, 60 min, 120 min), 0.4 mL sample aliquots of homogeneous dispersions are withdrawn by a syringe, and filtrated via syringe filter adapters (PTFE, 0.2 μm). Clear filtrates are diluted (1:20) with respective Acetate blank buffer, and diluted samples analyzed by HPLC for dissolved quantities of N-(4,5-bis-methanesulfonyl-2-methyl-benzoyl)-guanidine.

[5] = tested on: SuHx rats; conditions: in vivo; cited from earlier work
[6] = molecular target: sodium-hydrogen antiporter 1 (NHE-1) (Homo sapiens, UniProt P19634); conditions: cited from earlier work
[7] = tested on: animal models of DMD and dilated cardiomyopathy; conditions: cited from earlier work
[8] = tested on: monocrotaline-treated rats; conditions: in vivo; cited from earlier work
[9] = relative humidity range 0-90% rh
[10] = relative humidity range 0-80% rh
[11] = entire relative humidity range 0-98% rh

Sequence of sodium-hydrogen antiporter 1 (NHE-1) (P19634 whole entry, species assumed): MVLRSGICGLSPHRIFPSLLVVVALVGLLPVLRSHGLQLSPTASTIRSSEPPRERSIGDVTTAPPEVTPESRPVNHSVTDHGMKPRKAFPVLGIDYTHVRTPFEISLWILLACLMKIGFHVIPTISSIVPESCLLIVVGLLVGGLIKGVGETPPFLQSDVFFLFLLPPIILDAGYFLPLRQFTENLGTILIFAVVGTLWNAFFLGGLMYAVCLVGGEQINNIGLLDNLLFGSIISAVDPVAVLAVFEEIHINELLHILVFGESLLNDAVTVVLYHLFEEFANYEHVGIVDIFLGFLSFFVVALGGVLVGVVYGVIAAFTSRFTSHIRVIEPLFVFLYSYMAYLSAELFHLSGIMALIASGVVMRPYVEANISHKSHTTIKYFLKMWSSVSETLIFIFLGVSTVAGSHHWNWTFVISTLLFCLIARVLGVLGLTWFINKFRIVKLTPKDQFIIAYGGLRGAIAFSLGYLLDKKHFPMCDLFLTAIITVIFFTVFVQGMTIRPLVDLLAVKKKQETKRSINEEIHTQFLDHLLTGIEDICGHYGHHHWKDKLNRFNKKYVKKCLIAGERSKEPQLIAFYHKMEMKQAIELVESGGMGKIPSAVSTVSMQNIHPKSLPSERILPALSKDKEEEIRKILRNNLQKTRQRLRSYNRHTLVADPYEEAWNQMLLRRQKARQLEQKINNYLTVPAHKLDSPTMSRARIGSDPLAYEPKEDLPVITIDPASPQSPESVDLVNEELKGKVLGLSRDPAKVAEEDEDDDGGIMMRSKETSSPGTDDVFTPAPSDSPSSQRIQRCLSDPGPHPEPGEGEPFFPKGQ

SMILES	Thermal stability (mp/dec) [2] [°C]	Hygroscopicity classification acc. to Ph. Eur. criteria (section 5.11.) [3]	Dissolution levels in FeSSIF pH 5.0 ([4]; 5 min) [mg/mL]	Dissolution levels in FeSSIF pH 5.0 ([4]; 15 min)	Dissolution behavior compared to prior-art form HCl-H1 [4]	Water uptake levels (Water Vapour Sorption) [3, 10] [wt %]	Dissolution levels in FeSSIF pH 5.0 ([4]; 60 min)	Dissolution levels in FeSSIF pH 5.0 ([4]; 120 min)	also measured
N=C(N)NC(=O)c1nc(Cl)c(N)nc1N [Amiloride]	–	–	–	–	–	–	–	–	Proliferation and migration of human PASMCs [1]: inhibit proliferation and migration
Cc1cc(S(C)(=O)=O)c(S(C)(=O)=O)cc1C(=O)NC(=N)N [Citrate-NF1, N-(4,5-bis-methanesulfonyl-2-methyl-benzoyl)-guanidine]	~180	slightly hygroscopic	2.056	4.13±0.02 mg/mL and 4.132 mg/mL	improved dissolution behavior	–	–	–	Water uptake levels (Water Vapour Sorption) [3, 9]: ≤ 1.5 wt %; Tendency to undergo hydrate formation [3]: no tendency to undergo hydrate formation
CCN(c1nc(N)c(C(=O)NC(=N)N)nc1Cl)C(C)C [EIPA]	–	–	–	–	–	–	–	–	Proliferation and migration of human PASMCs [1]: inhibit proliferation and migration; Proliferation and migration [5]: inhibit proliferation and migration
Cc1cc(S(C)(=O)=O)c(S(C)(=O)=O)cc1C(=O)NC(=N)N [HCl-A2, N-(4,5-bis-methanesulfonyl-2-methyl-benzoyl)-guanidine]	> 240	non-hygroscopic	0.990	1.19±0.02 mg/mL and 1.193 mg/mL	–	0.1	1.90±0.02 mg/mL and 1.897 mg/mL	2.21±0.02 mg/mL and 2.213 mg/mL	–
Cc1cc(S(C)(=O)=O)c(S(C)(=O)=O)cc1C(=O)NC(=N)N [HCl-A3, N-(4,5-bis-methanesulfonyl-2-methyl-benzoyl)-guanidine]	> 240	non-hygroscopic	0.418	0.74±0.02 mg/mL and 0.738 mg/mL	–	–	2.51±0.02 mg/mL and 2.506 mg/mL	3.78±0.02 mg/mL and 3.781 mg/mL	Water uptake levels (Water Vapour Sorption) [3, 11]: ≤ 0.4 wt %
Cc1cc(S(C)(=O)=O)c(S(C)(=O)=O)cc1C(=O)NC(=N)N [Maleate-NF2, N-(4,5-bis-methanesulfonyl-2-methyl-benzoyl)-guanidine]	> 200	non-hygroscopic; also recorded: slightly hygroscopic	2.043	4.30±0.02 mg/mL and 4.296 mg/mL	improved dissolution behavior	–	6.35±0.02 mg/mL and 6.350 mg/mL	6.35±0.02 mg/mL and 6.350 mg/mL	Water uptake levels (Water Vapour Sorption) [3, 11]: ≤ 0.3 wt %; Tendency to undergo hydrate formation [3]: no tendency to undergo hydrate formation
Cc1cc(S(C)(=O)=O)c(S(C)(=O)=O)cc1C(=O)NC(=N)N [Malonate-NF1, N-(4,5-bis-methanesulfonyl-2-methyl-benzoyl)-guanidine]	> 190	slightly hygroscopic	3.527	5.340 mg/mL	improved dissolution behavior	≤ 1.0	5.77±0.02 mg/mL and 5.770 mg/mL	5.79±0.02 mg/mL and 5.790 mg/mL	–
Cc1cc(S(C)(=O)=O)c(S(C)(=O)=O)cc1C(=O)NC(=N)N [Oxalate-NF1, N-(4,5-bis-methanesulfonyl-2-methyl-benzoyl)-guanidine]	> 260	non-hygroscopic	1.329	2.09±0.02 mg/mL and 2.095 mg/mL	improved dissolution behavior	–	3.04±0.02 mg/mL and 3.042 mg/mL	3.02±0.02 mg/mL and 3.025 mg/mL	Tendency to undergo hydrate formation [3]: no tendency to undergo hydrate formation
Cc1cc(S(C)(=O)=O)c(S(C)(=O)=O)cc1C(=O)NC(=N)N [Phosphate-NF1, N-(4,5-bis-methanesulfonyl-2-methyl-benzoyl)-guanidine]	> 230	slightly hygroscopic	3.373	5.92±0.02 mg/mL and 5.919 mg/mL	improved dissolution behavior	–	6.35±0.02 mg/mL and 6.345 mg/mL	6.35±0.02 mg/mL and 6.345 mg/mL	Water uptake levels (Water Vapour Sorption) [3, 9]: ≤ 1.0 wt %; Tendency to undergo hydrate formation [3]: no tendency to undergo hydrate formation
Cc1cc(S(C)(=O)=O)c(S(C)(=O)=O)cc1C(=O)N=C(N)N [Rimeporide, N-(4,5-bismethanesulfonyl-2-methylbenzoyl)guanidine]	–	–	–	–	–	–	–	–	Inhibition of NHE-1 [6]: potent and selective inhibitor; Cardioprotective action ([7]; animal models of DMD and dilated cardiomyopathy): good cardioprotective action; Long term accumulation of inflammation and fibrosis ([7]; animal models of DMD, skeletal muscles, the heart and the diaphragm): prevent against the long term accumulation of inflammation and fibrosis
N=C(N)NC(=O)c1ccc(N2CCN(C(=O)c3ccc[nH]3)CC2)c(C(F)(F)F)c1 [Sabiporide]	–	–	–	–	–	–	–	–	Proliferation and migration of human PASMCs [1]: inhibit proliferation and migration
Cc1cc(S(C)(=O)=O)c(S(C)(=O)=O)cc1C(=O)NC(=N)N [Succinate-NF1, N-(4,5-bis-methanesulfonyl-2-methyl-benzoyl)-guanidine]	> 200	non-hygroscopic	1.105	3.26±0.02 mg/mL and 3.260 mg/mL	improved dissolution behavior	≤ 0.2	5.10±0.02 mg/mL and 5.104 mg/mL	5.03±0.02 mg/mL and 5.032 mg/mL	–
Cc1cc(S(C)(=O)=O)c(S(C)(=O)=O)cc1C(=O)NC(=N)N [Sulfate-NF3, N-(4,5-bis-methanesulfonyl-2-methyl-benzoyl)-guanidine]	> 210	slightly hygroscopic	2.590	3.70±0.02 mg/mL and 3.703 mg/mL	improved dissolution behavior	≤ 0.5	4.65±0.02 mg/mL and 4.646 mg/mL	4.70±0.02 mg/mL and 4.705 mg/mL	–
Cc1cc(S(C)(=O)=O)c(S(C)(=O)=O)cc1C(=O)NC(=N)N [Tosylate-NF1, N-(4,5-bis-methanesulfonyl-2-methyl-benzoyl)-guanidine]	–	slightly hygroscopic	1.961	4.85±0.02 mg/mL and 4.850 mg/mL	improved dissolution behavior	1.0	5.28±0.02 mg/mL and 5.285 mg/mL	2.86±0.02 mg/mL and 2.859 mg/mL	Thermally stable up to [2]: ~180 °C
CC(C)c1ccc(C(=O)NC(=N)N)cc1S(C)(=O)=O [cariporide]	–	–	–	–	–	–	–	–	Development of right heart failure [8]: attenuate the development of right heart failure
